One test relates to Enterococcus faecalis. Briefly: Biocide kill of planktonic cells and biofilm on vascular catheter (serum flow model). Format: cell-based. The following applies: at 5 minutes of treatment; phase (planktonic or biofilm) not specified, FIGS. 13A-B.
For test [1], the system named is methicillin resistant Staphylococcus aureus (MRSA). Described as above. The class given is cell-based. The following applies: biofilm on vascular catheter, 5 to 60 minutes, FIG. 14B.
For a further test, the system named is Burkholderia cepacia. The test is described as above. The class given is cell-based. The following applies: 5 to 60 minutes; for biofilm kill (biocide concentration required to kill 50% of bacteria that grew in the biofilm): biofilm on vascular catheter, FIG. 11B; for planktonic cell kill (biocide concentration required to kill 100% of bacteria present as planktonic cells): planktonic cells on vascular catheter, FIG. 11A. From the text:
(§1) A system as shown in FIG. 6 was used in this study. Serum and a biocide were placed in sealed bottles as the first fluid source 505 and the second fluid source 509, respectively. The fluid sources were connected to a pump 515 by conventional IV tubing. A second pump 531 was used to deliver the fluid mixture to the vascular catheter 3 positioned in the sampling apparatus 1.
(§2) Initially, only the first fluid source, serum inoculated with Acinetobacter baumanii (10×10^9 CFU/ml), was used to contaminate the catheter with planktonic cells. The inoculated fluid continuously flowed through IV tubing directly through the catheter for […] to form a layer of planktonic cells on the catheter. Fluid flow was then stopped and the tubing was then reconfigured as shown in FIG. 6 so that the second fluid source could be introduced. In these test runs, the first fluid source was inoculated with the same concentration of bacteria, and the second fluid source was a biocide (16-16,000 ppm) selected from hydrogen peroxide (H2O2), sodium hypochlorite (SHC), peracetic acid (PAA) and gluteraldehyde (GLT). The fluid mixture continuously flowed through the catheter for 5, 10, 15, 30, 45 or 60 minutes before fluid flow was discontinued to determine bacterial resistance of the planktonic cells on the catheter. In all, six runs were completed for each of four different biocides. After each run, the test catheter was then cut aseptically into 1 cm segments. The segments were transferred to test tubes containing one ml saline and the adherent cells were dislodged by sonication in an aquasonic device, vortexed for about one minute, and then counted on Tropic soya Agar. The number of viable cells were determined for each catheter and were compared to the number of viable cells in control samples (i.e., biocide-free serum) to calculate the biocide concentration required to kill 50% of the bacteria in the biofilm at the same time interval. Instead of saline, other appropriate buffer solutions can be used. In addition to plating cells on agar and counting the number of colonies, the amount of biofilm formed can be determined by a semiquantitive microtiter plate method. For example, adherent cells can be dislodged from test catheters as described above. The aliquots of solutions containing the cells from each catheter piece can then be added separately to wells of a 96-well tissue culture plate and incubated at 37° C. for 24 h. After several (e.g., three) washes with PBS, any remaining biofilm is stained with safranin O dye for 1 min and washed with PBS again. Optical density at 492 nm is determined with a 96-well plate spectrometer reader. For each time point, an aliquot without biocide is a positive control. Percent inhibition of biofilm accumulation can be determined from the formula (A492positive−A492biocide)/(A492positive−A492)×100%, Such plating methods are well known to one skilled in the art and could be modified as desired for analysis of the biofilm.
(§3) For determination of the bacterial resistance of the biofilm formed on the catheter, the method described above was repeated using the same conditions except that the inoculated fluid continuously flowed through the catheter for two hours before fluid flow was discontinued to form a biofilm on the catheter.
The experiment was repeated as described above, except that Burkholderia cepacia (1×10^9 CFU/ml) was used to inoculate the serum.

In a further test the test system is Staphylococcus epidermis. Described as above. The class given is cell-based. The following applies: 5 to 60 minutes; for biofilm kill (biocide concentration required to kill 50% of bacteria that grew in the biofilm): biofilm on vascular catheter, FIG. 15B; for planktonic cell kill (biocide concentration required to kill 100% of bacteria present as planktonic cells): planktonic cells on vascular catheter, FIG. 15A.
Text: as §1, §2, §3
The experiment was repeated as described above, except that Staphylococcus epidermis (1×10^9 CFU/ml) was used to inoculate the serum.

The subject of another test is Pseudomonas aeruginosa. Described as above. The class given is cell-based. The following applies: 5 to 60 minutes; for biofilm kill (biocide concentration required to kill 50% of bacteria that grew in the biofilm): biofilm on vascular catheter, FIG. 16B; for planktonic cell kill (biocide concentration required to kill 100% of bacteria present as planktonic cells): planktonic cells on vascular catheter, FIG. 16A.
Text: as §1, §2, §3
The experiment was repeated as described above, except that Pseudomonas aeruginosa (1×10^9 CFU/ml) was used to inoculate the serum.

Test [2] has as its system Stenotrophomonas maltophilia. Described as above. The class given is cell-based. The following applies: 5 to 60 minutes; for biofilm kill (biocide concentration required to kill 50% of bacteria that grew in the biofilm): biofilm on vascular catheter, FIG. 17B; for planktonic cell kill (biocide concentration required to kill 100% of bacteria present as planktonic cells): planktonic cells on vascular catheter, FIG. 17A.
Text: as §1, §2, §3
The experiment was repeated as described above, except that Stenotrophomonas maltophilia (1×10^9 CFU/ml) was used to inoculate the serum.

The subject of test [3] is MRSA. Briefly: Effect of albumin coating on colonization of MRSA in endotracheal tube model. Format: cell-based, Staphylococcus aureus. An excerpt: A system as shown in FIG. 7 was used in this study. Artificial saliva was placed in a sealed bottle as the second fluid source 609. The first fluid source was provided by an oxygen tank used to saturate the artificial saliva with oxygen. A pump 631 was used to deliver the saliva to an endotracheal tube 3 positioned in the sampling apparatus 1. Each endotracheal tube was pretreated by coating the tube with undiluted bovine serum albumin, except for the untreated tube used as a control.
Initially, only the second fluid source, saliva inoculated with MRSA (1×10^9 CFU/ml), was used to contaminate the endotracheal tube. The inoculated fluid continuously flowed through IV tubing directly through the endotracheal tube for 60 minutes to form a biofilm on the tube. Fluid flow was then stopped and the tubing was then reconfigured as shown in FIG. 7 so that oxygen could be introduced. In these test runs, 100 mg/L mucin was added to the saliva. The fluid mixture continuously flowed through the catheter for 48 hours before fluid flow was discontinued to determine the effect of albumin on the colonization of MRSA on the endotracheal tube. […] The segments were transferred to test tubes containing one ml saline and the adherent cells were dislodges by sonication in an aquasonic device, vortexed for about one minute, and then counted on Tropic soya Agar. […]

The test system of test [4] is MRSA. Put plainly: Mucin in controlling colonization of MRSA in endotracheal tube model. Format: cell-based, Staphylococcus aureus. The following applies: for log10 reduction of colonized MRSA: 48 hours flow, endotracheal tube. An excerpt: A system as shown in FIG. 7 was used in this study. Artificial saliva was placed in a sealed bottle as the second fluid source 609. The first fluid source was provided by an oxygen tank used to saturate the artificial saliva with oxygen. A pump 631 was used to deliver the saliva to an endotracheal tube 3 positioned in the sampling apparatus 1.
Initially, only the second fluid source, saliva inoculated with MRSA (1×10^9 CFU/ml), was used to contaminate the endotracheal tube. The inoculated fluid continuously flowed through IV tubing directly through the endotracheal tube for 60 minutes to form a biofilm on the tube. Fluid flow was then stopped and the tubing was then reconfigured as shown in FIG. 7 so that oxygen could be introduced. In these test runs, 100 mg/L mucin was added to the saliva. The fluid mixture continuously flowed through the catheter for 48 hours before fluid flow was discontinued to determine the effect of mucin on the bacterial resistance of the biofilm formed on the endotracheal tube. In all, four runs were completed at 0 mg/L mucin (control), 100 mg/L mucin, 500 mg/L mucin and 1000 mg/L mucin. After each run, the endotracheal tube was cut aseptically into one cm segments. The segments were transferred to test tubes containing one ml saline and the adherent cells were dislodges by sonication in an aquasonic device, vortexed for about one minute, and then counted on Tropic soya Agar.
The results of this study are shown in FIG. 18, which depicts the number of MRSA colony forming units per unit of surface area (CFU/cm^2) on the tube for each mucin concentration. […] The log10 reduction of colonized MRSA was 0.5, 3 (P=0.0001) and 3.5 (P=0.0001) at 100, 500 and 1000 mg/L of mucin, respectively. […] This pathogen plays a significant role in the onset of […] associated pneumonia by causing sustained tracheal colonization.

These results are taken from US20080076147A1, “BIOFILM SAMPLING DEVICE” (BOARD OF TRUSTEES OF SOUTHERN ILLINOIS UNIVERSITY, priority 2006, published 2008).

Turning to `OO` [hydrogen peroxide], in the test with Enterococcus faecalis, the “effectiveness as compared to the other biocides” value is on record as “relatively uneffective”. Besides, the “biofilm kill (biocide concentration required to kill 50% of bacteria that grew in the biofilm)” value in test [1] is “PAA>GLT>hydrogen peroxide>SHC”; in the test with Burkholderia cepacia, “nearly identical effect”; in the test on Staphylococcus epidermis, “performed comparably”; in the test with Pseudomonas aeruginosa, “PAA>SHC>GLT>hydrogen peroxide”; in test [2] it was “nearly identical effect”. Besides, the “planktonic cell kill (biocide concentration required to kill 100% of bacteria present as planktonic cells)” value in the test on Burkholderia cepacia is “SHC, PAA and GLT performed comparably and were more effective than hydrogen peroxide”; in the test with Staphylococcus epidermis, “SHC, PAA and GLT performed similarly in planktonic cell kill and outperformed hydrogen peroxide”; with Pseudomonas aeruginosa, “PAA and GLT performed comparably and were more effective than hydrogen peroxide and SHC”; in test [2], “GLT was somewhat more effective in killing planktonic cells as compared to SHC or PAA and considerably more effective than hydrogen peroxide”.

Regarding bovine serum albumin, the “MRSA colonization of endotracheal tubes (in words)” value in the test with MRSA [3] (albumin coating of endotracheal tube, FIG. 19) is reported as “increased significantly”. For the same compound, the “log10 increase of colonized cells” value in the test with MRSA [3] (whole tube coating with albumin, 100 mg/L mucin in saliva, 48 hours flow, versus uncoated tube, P<0.0001) was 2.4 log10.

On to `OCl` [SHC, sodium hypochlorite], for which the “biofilm kill (biocide concentration required to kill 50% of bacteria that grew in the biofilm)” value in test [1] was “PAA>GLT>hydrogen peroxide>SHC”; in the test with Burkholderia cepacia, “nearly identical effect”; with Staphylococcus epidermis, “performed comparably”; in the test on Pseudomonas aeruginosa it was “PAA>SHC>GLT>hydrogen peroxide”; in test [2], “nearly identical effect”. The “planktonic cell kill (biocide concentration required to kill 100% of bacteria present as planktonic cells)” value is “performed comparably and were more effective than hydrogen peroxide” in the test on Burkholderia cepacia; “performed similarly in planktonic cell kill and outperformed hydrogen peroxide” in the test with Staphylococcus epidermis; “PAA and GLT performed comparably and were more effective than hydrogen peroxide and SHC” in the test on Pseudomonas aeruginosa; “GLT was somewhat more effective in killing planktonic cells as compared to SHC or PAA” in test [2].

In the case of mucin, the “log10 reduction of colonized MRSA” value turned out to be 0.5 log10 in the test on MRSA [4] (100 mg/L of mucin in oxygen-saturated artificial saliva); 3 log10 in the test on MRSA [4] (500 mg/L of mucin in oxygen-saturated artificial saliva, P=0.0001); 3.5 log10 in the test on MRSA [4] (1000 mg/L of mucin in oxygen-saturated artificial saliva, P=0.0001). Further, the “colonization of MRSA on endotracheal tubes (in words)” value with MRSA [4] (mucin 100-1000 mg/L in artificial saliva, in vitro, FIG. 18) is “effective in decreasing the colonization of MRSA on endotracheal tubes”.
